From BigSolDB 2.1

CC(=O)N1CCN(c2ccc(OC[C@@H]3CO[C@@](Cn4ccnc4)(c4ccc(Cl)cc4Cl)O3)cc2)CC1 (racemic)
Details | solubility (mole fraction)
in PEG-200, 298.2 K | 0.00611
in PEG-200, 303.2 K | 0.00718
in PEG-200, 308.2 K | 0.00908
in PEG-200, 313.2 K | 0.0118
in PEG-200, 318.2 K | 0.0144

in water
Details | solubility (mole fraction)
298.2 K | 4e-07
303.2 K | 5e-07
308.2 K | 5e-07
313.2 K | 7e-07
318.2 K | 9e-07
